# Structures can show the parent of a compound that is named as a salt. Where two headings read alike, the source gives them in different places.
# Columns and labels:
# [1] = test system: NCI-H716 cells; test: GLP-1 release from endocrine cell line NCI-H716 (GLP-1 RIA kit); format: cell-based
# Procedure: Endocrine cell lines of NCI-H716 cells were used for testing release of GLP-1 triggered by various possible ligands.
# NCI-H716 cells were incubated in serum-free DME/F12 media containing vehicle (0.01% DMSO) with a candidate ligand at the indicated concentrations. Secretion active GLP-1 in media was measured with GLP-1 RIA kit (Linco Research, Missouri, USA). The experiments for all groups have been conducted in duplicates.
# [2] = biological target: T1, hTAS2R47 (Homo sapiens, UniProt P59541); details: observed by Pronin et al. [Pronin 2004]; cited from earlier work
# T1 sequence (P59541 1-319): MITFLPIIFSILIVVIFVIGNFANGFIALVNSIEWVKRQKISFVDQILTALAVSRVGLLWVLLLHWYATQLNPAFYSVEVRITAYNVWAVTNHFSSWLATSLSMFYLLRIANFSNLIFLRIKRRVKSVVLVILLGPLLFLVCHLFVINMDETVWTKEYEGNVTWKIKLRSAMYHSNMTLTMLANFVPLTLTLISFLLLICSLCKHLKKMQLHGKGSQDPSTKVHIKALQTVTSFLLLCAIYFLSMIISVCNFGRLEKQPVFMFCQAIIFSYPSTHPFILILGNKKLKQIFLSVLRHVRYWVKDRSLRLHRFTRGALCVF
# [3] = test system: STC-5 cells; details: 30 minutes incubation, PTC at various concentrations, versus vehicle (FIGS. 24A, 24B)
# Procedure: In GLP-1 release experiments, selected endocrine cell lines of STC-5 cells or NCI-H716 cells were used for testing release of GLP-1 triggered by various possible ligands. Endocrine cells were incubated in serum-free DME/F12 media containing vehicle (0.01% DMSO) and a candidate ligand of certain concentration and for a certain period of incubation time. After incubation, secretion active GLP-1 in media was measured with GLP-1 RIA kit (Linco Research®, Missouri, USA).
# Secretion of active GLP-1 in media was measured with GLP-1 RIA kit (Linco Research, Missouri, USA). The experiments for all groups have been conducted in duplicates.
# [4] = test system: male Sprague-Dawley rats
# Procedure: The rats were then euthanized 45 min later and removed blood via intracardiac puncture and measured PYY in the blood by a recently modified radioimmunoassay using CURE antibody 9153 (Gift of J Reeve, University of California, Los Angeles.).
# [5] = test system: bitter taste; details: average; cited from earlier work
# [6] = NCI-H716 cells, ligand concentration 10 μm, duplicates, control 58.47
# [7] = summary of Table 2, versus control
Structure (SMILES),"GLP-1 (pmol/mg protein) [1, 6] [pmol/mg protein]","effect on release of GLP-1 from NCI-H716 cells (in words) [1, 7]",further results
C=CCSC [Allyl methyl sulfide],91.547,increase the release of GLP-1,
COc1ccc2cc3[n+](cc2c1OC)CCc1cc2c(cc1-3)OCO2 [Berberine chloride],86.41,increase the release of GLP-1,
"CCCC(=O)O [Butyrate, reference compound]",,,"GLP-1 (pmol/mg protein) ([1]; NCI-H716 cells, ligand concentration 2.5 mM, duplicates, control 58.47): 100.77 pmol/mg protein"
"O=C1NS(=O)(=O)c2cccc([N+](=O)[O-])c21 [Compound 4NS, 4-Nitro saccharin]",,,activation of hTAS2R47 (in words) [2]: very weak inverse agonist
"O=C1NS(=O)(=O)c2cc([N+](=O)[O-])ccc21 [Compound 6NS, 6-Nitro saccharin]",,,activation of hTAS2R47 (in words) [2]: activated the receptor to a lesser extent
c1c2c(cc3c1OCO3)-c1cc3ccc4c(c3c[n+]1CC2)OCO4 [Coptisine chloride],121.35,increase the release of GLP-1,
COc1cc(/C=C/C(=O)CC(=O)/C=C/c2ccc(O)c(OC)c2)ccc1O [Curcumin],61.52,,
CC[N+](CC)(CC(=O)Nc1c(C)cccc1C)Cc1ccccc1 [Denatonium],,,activation of hTAS2R47 (in words) [2]: activated strongest
O=c1oc2c(O)c(O)cc3c(=O)oc4c(O)c(O)cc1c4c23 [Ellagic acid],77.25,increase the release of GLP-1,
CCCCCCCCCCCC1=C(O)C(=O)C=C(O)C1=O [Embelin],83.55,,
O=C(O[C@@H]1Cc2c(O)cc(O)cc2O[C@@H]1c1cc(O)c(O)c(O)c1)c1cc(O)c(O)c(O)c1 [Epigallocatechin gallate],,increase the release of GLP-1,"GLP-1 (pmol/mg protein) ([1]; NCI-H716 cells, ligand concentration 1 μm, duplicates, control 58.47): 91.15 pmol/mg protein"
CC1(C)[C@@H](O[C@H]2O[C@H](C(=O)O)[C@@H](O)[C@H](O)[C@H]2O[C@@H]2O[C@H](C(=O)O)[C@@H](O)[C@H](O)[C@H]2O)CC[C@]2(C)[C@H]3C(=O)C=C4[C@@H]5C[C@@](C)(C(=O)O)CC[C@]5(C)CC[C@@]4(C)[C@]3(C)CC[C@@H]12 [Glycyrrhizic acid ammonium salt],71.95,increase the release of GLP-1,
CC(C)=CCC[C@]1(C)[C@@H](CC=C(C)C)C[C@@]2(CC=C(C)C)C(=O)[C@]1(C(=O)C(C)C)C(=O)C(CC=C(C)C)=C2O [Hyperforin],,increase the release of GLP-1,"GLP-1 (pmol/mg protein) ([1]; NCI-H716 cells, ligand concentration 5 μg/ml, duplicates, control 58.47): 104.87 pmol/mg protein"
"NC(=S)Nc1ccccc1 [PTC, Phenylthiocarbamide]",,,"effect on GLP-1 release from STC-5 cells (in words) [3]: large effect; change of PYY levels versus saline gavaged rats (in words) ([4]; 5 mM PTC in 5 ml saline by gastric gavage, 45 min): doubling; PYY in the blood ([4]; 5 mM PTC in 5 ml saline by gastric gavage, 45 min later, n=5, saline rats 71+/−35 pM): 154 ± 44 pM; volume of fluid remaining in the stomachs ([4]; at sacrifice 45 min after gavage of 5 ml, saline-treated rats less than 0.5 ml): 1 to 2 mL; GLP-1 (pmol/mg protein) [1]: 98.73 pmol/mg protein; effect on release of GLP-1 from NCI-H716 cells (in words) [1]: increase the release of GLP-1"
CC(=O)c1c(O)c(C)c(O)c(Cc2c(O)c3c(c(C(=O)/C=C/c4ccccc4)c2O)OC(C)(C)C=C3)c1O [Rottlerin],,increase the release of GLP-1,"GLP-1 (pmol/mg protein) ([1]; NCI-H716 cells, ligand concentration 0.05%, duplicates, control 58.47): 111.18 pmol/mg protein"
C=C[C@H]1C[N@@]2CC[C@H]1C[C@H]2[C@H](O)c1ccnc2ccc(OC)cc12 [quinine],,,threshold for stimulation of bitter taste [5]: 8 µM
